Reference: ChEMBL document CHEMBL1201862, “PubChem BioAssay data set” (2004)
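These data come from cells grown in 96-well plates and exposed to compound for 48 hours at five concentrations. The concentration for 50% growth inhibition is given as GI50.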 Activity calls are given as the source filed them. No stated cut-off is given here; in the data, active = GI50 up to about 1.1 µM and inactive = higher.

What was measured:
Assay in all cases: DTP human tumour cell line panel, 48 h
SK-MEL-28 = system: SK-MEL-28
OVCAR-3 = system: OVCAR-3
OVCAR-8 = system: OVCAR-8
MCF7 = system: MCF7
A498 = system: A498
SR = system: SR
HL-60 = system: HL-60
PC-3 = system: PC-3
UACC-257 = system: UACC-257
K562 = system: K562
M14 = system: M14
SF-295 = system: SF-295
HT-29 = system: HT-29
ACHN = system: ACHN
SNB-19 = system: SNB-19
UO-31 = system: UO-31
OVCAR-5 = system: OVCAR-5
Hs-578T = system: Hs-578T
SF-539 = system: SF-539

Measured: GI50

COc1cc(-c2[o+]c3cc(O)cc(O)c3cc2O)cc(O)c1O
inactive: SK-MEL-28 > 100 µM | OVCAR-3 > 100 µM | OVCAR-8 > 100 µM | MCF7 21.3 µM | A498 > 100 µM | SR 96.6 µM | HL-60 > 100 µM | PC-3 > 100 µM | UACC-257 > 100 µM | K562 > 100 µM | M14 > 100 µM | SF-295 > 100 µM | HT-29 > 100 µM | ACHN > 100 µM | SNB-19 > 100 µM | UO-31 > 100 µM | OVCAR-5 > 100 µM | Hs-578T > 100 µM | SF-539 > 100 µM

c1ccc2c3c([nH]c2c1)C1CCCN1CC3 (stereo not given)
inactive: SK-MEL-28 > 10 µM | OVCAR-3 > 10 µM | OVCAR-8 > 10 µM | MCF7 > 10 µM | A498 > 10 µM | SR > 10 µM | HL-60 > 10 µM | PC-3 > 10 µM | UACC-257 > 10 µM | K562 > 10 µM | M14 > 10 µM | SF-295 > 10 µM | HT-29 > 10 µM | ACHN > 10 µM | SNB-19 > 10 µM | UO-31 > 10 µM | OVCAR-5 > 10 µM | Hs-578T > 10 µM | SF-539 > 10 µM

C=CC(C)(O)/C=C/C=C(\C)C(CC1OC1(C)C)OC(=O)/C(C)=C\C (stereo not given)
inactive: SK-MEL-28 > 100 µM | OVCAR-3 > 100 µM | OVCAR-8 > 100 µM | MCF7 > 100 µM | A498 > 100 µM | SR > 100 µM | HL-60 > 100 µM | PC-3 > 100 µM | UACC-257 > 100 µM | K562 > 100 µM | M14 > 100 µM | SF-295 > 100 µM | HT-29 > 100 µM | ACHN > 100 µM | SNB-19 > 100 µM | UO-31 > 100 µM | OVCAR-5 > 100 µM | Hs-578T > 100 µM | SF-539 > 100 µM

O=C1CCCC2=C1CC1=C(CCCC1=O)N2c1ccc(Cl)cc1
inactive: SK-MEL-28 > 100 µM | OVCAR-3 > 100 µM | OVCAR-8 97.1 µM | MCF7 > 100 µM | A498 > 100 µM | SR 50.1 µM | HL-60 28.1 µM | PC-3 > 100 µM | UACC-257 > 100 µM | K562 > 100 µM | M14 > 100 µM | SF-295 > 100 µM | HT-29 > 100 µM | ACHN > 100 µM | SNB-19 > 100 µM | UO-31 > 100 µM | OVCAR-5 > 100 µM | Hs-578T > 100 µM | SF-539 > 100 µM

COC(OC)(c1ccccc1)C(I)I
inactive: SK-MEL-28 16.1 µM | OVCAR-3 15.3 µM | OVCAR-8 17.9 µM | MCF7 18.7 µM | A498 > 10 µM | SR 2.04 µM | HL-60 2 µM | PC-3 14.2 µM | UACC-257 3.45 µM | K562 2.58 µM | M14 5.37 µM | SF-295 22.8 µM | HT-29 15 µM | ACHN 16.5 µM | SNB-19 35.3 µM | UO-31 16.3 µM | OVCAR-5 16.2 µM | Hs-578T 20.1 µM | SF-539 12.7 µM

CCOC(=O)CCC(NC(=O)c1ccc(Oc2nc3ccccc3nc2-c2ccccc2)cc1)C(=O)OCC (stereo not given)
inactive: SK-MEL-28 50.6 µM | OVCAR-3 15.4 µM | OVCAR-8 3.55 µM | MCF7 > 100 µM | A498 > 50.1 µM | SR > 29.8 µM | HL-60 > 100 µM | PC-3 92.9 µM | UACC-257 > 100 µM | K562 > 60.4 µM | M14 > 62.1 µM | SF-295 23.1 µM | HT-29 2.48 µM | ACHN 7.35 µM | SNB-19 22 µM | UO-31 34 µM | OVCAR-5 > 55 µM | Hs-578T 7.08 µM | SF-539 3.6 µM

CCCCC(=O)OC[n+]1cccc(-c2c(COC(=O)NC(C)C)c(COC(=O)NC(C)C)c3n2CCC3)c1
inactive: SK-MEL-28 > 100 µM | OVCAR-3 57.3 µM | OVCAR-8 44 µM | MCF7 28.8 µM | A498 25.8 µM | SR 4.72 µM | HL-60 10.7 µM | PC-3 60.7 µM | UACC-257 44.7 µM | K562 38.6 µM | M14 40.5 µM | SF-295 52.2 µM | HT-29 43 µM | ACHN 21.3 µM | SNB-19 > 92.3 µM | UO-31 27 µM | OVCAR-5 > 68.1 µM | Hs-578T > 50.6 µM | SF-539 28.6 µM

CCOP1(=O)OCC2OC(n3cnc4c(N)ncnc43)C(O)C2O1.c1ccccc1 (stereo not given)
inactive: SK-MEL-28 > 100 µM | OVCAR-3 > 100 µM | OVCAR-8 > 100 µM | MCF7 > 100 µM | A498 > 100 µM | SR > 100 µM | HL-60 > 100 µM | PC-3 > 100 µM | UACC-257 > 100 µM | K562 > 100 µM | M14 > 100 µM | SF-295 > 100 µM | HT-29 > 100 µM | ACHN > 100 µM | SNB-19 > 100 µM | UO-31 > 100 µM | OVCAR-5 > 100 µM | Hs-578T > 100 µM | SF-539 > 100 µM

O=C(NC(O)(C(F)(F)F)C(F)(F)F)c1ccccc1
inactive: SK-MEL-28 > 100 µM | OVCAR-3 > 100 µM | OVCAR-8 > 100 µM | MCF7 > 100 µM | A498 > 100 µM | SR > 100 µM | HL-60 > 100 µM | PC-3 > 100 µM | UACC-257 > 100 µM | K562 > 100 µM | M14 > 100 µM | SF-295 > 100 µM | HT-29 > 100 µM | ACHN > 100 µM | SNB-19 > 100 µM | UO-31 > 100 µM | OVCAR-5 > 100 µM | Hs-578T > 100 µM | SF-539 > 100 µM

O=c1[nH][nH]c(=S)c(=O)[nH]1
inactive: SK-MEL-28 > 100 µM | OVCAR-3 > 100 µM | OVCAR-8 > 100 µM | MCF7 > 100 µM | A498 > 100 µM | SR > 100 µM | HL-60 > 100 µM | PC-3 > 100 µM | UACC-257 > 100 µM | K562 > 100 µM | M14 > 100 µM | SF-295 > 100 µM | HT-29 > 100 µM | ACHN > 100 µM | SNB-19 > 100 µM | UO-31 > 100 µM | OVCAR-5 > 100 µM | Hs-578T > 100 µM | SF-539 > 100 µM
